In series [1] the test system is WM164 melanoma cells. The series can be described thus: Confocal immunofluorescent microscopy of microtubule networks. Type of series: cell-based, human. The settings on record: 100 nM, 18 h.
The test system of series [2] is A375, M14, and RPMI7951. The series can be described thus: Cytotoxic activity against three human malignant melanoma cell lines. The settings on record: read-out: IC50 (approximate, three melanoma cell lines).
Series [3] deals with A375 xenograft. The experiment in a line: A375 melanoma xenograft model in nude mice. Type of series: in vivo. The note with it: for apoptosis in tumors (cleaved caspase 3 IHC): IHC staining.
The target in series [4] is purified tubulin (Sus scrofa, UniProt P02550+P02554). The experiment in a line: Cell-free microtubule polymerization assay. The format is biochemical, porcine. The note with it: tubulin 3.33 mg/mL, absorbance 340 nm, 37 °C, 50 min.
Sequence of purified tubulin (P02554 whole entry): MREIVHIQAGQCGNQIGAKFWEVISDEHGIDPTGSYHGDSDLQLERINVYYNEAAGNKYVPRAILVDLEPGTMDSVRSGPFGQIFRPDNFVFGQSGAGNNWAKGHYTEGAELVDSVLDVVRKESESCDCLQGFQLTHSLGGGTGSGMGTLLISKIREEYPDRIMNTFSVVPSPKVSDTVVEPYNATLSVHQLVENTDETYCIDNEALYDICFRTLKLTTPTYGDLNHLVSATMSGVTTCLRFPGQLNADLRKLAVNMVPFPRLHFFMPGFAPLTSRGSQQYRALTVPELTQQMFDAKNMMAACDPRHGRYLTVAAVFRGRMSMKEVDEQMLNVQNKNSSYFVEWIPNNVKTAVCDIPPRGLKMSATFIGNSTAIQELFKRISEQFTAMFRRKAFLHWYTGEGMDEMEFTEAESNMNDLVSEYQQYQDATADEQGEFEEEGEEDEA
Sequence of purified tubulin (P02550 whole entry): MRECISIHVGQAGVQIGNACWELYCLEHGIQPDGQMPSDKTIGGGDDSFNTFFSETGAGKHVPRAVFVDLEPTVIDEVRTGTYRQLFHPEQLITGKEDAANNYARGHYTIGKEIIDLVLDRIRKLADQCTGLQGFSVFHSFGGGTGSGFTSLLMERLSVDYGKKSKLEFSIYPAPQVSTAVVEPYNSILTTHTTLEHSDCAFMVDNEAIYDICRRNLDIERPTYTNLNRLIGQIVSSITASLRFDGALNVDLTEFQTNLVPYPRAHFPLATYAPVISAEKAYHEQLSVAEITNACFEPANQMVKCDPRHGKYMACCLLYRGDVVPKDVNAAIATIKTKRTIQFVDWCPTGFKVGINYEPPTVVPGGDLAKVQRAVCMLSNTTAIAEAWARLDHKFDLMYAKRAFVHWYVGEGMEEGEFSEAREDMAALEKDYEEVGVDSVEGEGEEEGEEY
Series [5] relates to PC-3/TxR xenograft. The series can be described thus: Paclitaxel resistant PC-3/TxR prostate cancer xenograft model in nude mice. Type of series: in vivo. The settings on record: for effect on tumor growth (in words): vs vehicle.
Series [6] concerns RPMI7951. The experiment in a line: Wound healing assay, RPMI7951 cells. The settings on record: 18 h, untreated control 71.8%. Type of series: cell-based, human.
The test system of series [7] is PC-3 xenograft. The settings on record: nude mice.

In the case of `COc1ccc2c(c1)CCCN2c1nc(Cl)nc2ncccc12` [4a, 2-Chloro-4-(6-methoxy-3,4-dihydroquinolin-1(2H)-yl)pyrido-[2,3-d]pyrimidine], in series [1], the “effect on microtubule networks” value is “causes fragmentation of the microtubules, decreases polymeric tubulin filaments, and increases cytoplasmic soluble tubulin”. The concentration for half-maximal inhibition (IC50) in series [2] is approximately 6 nM. In series [3], the “microvessel density in tumors (CD31 staining)” value (“microvessel density in tumors” below) was “less microvessel density” and the “apoptosis in tumors (cleaved caspase 3 IHC)” value (“apoptosis in tumors” for short) is reported as “increase in the number of cells undergoing apoptosis”. Moreover, the “effect on tubulin polymerization” value in series [4] is “effectively inhibited tubulin polymerization in a dose-dependent manner”. Besides, the “effect on tumor growth (in words)” value in series [5] was “significant decrease in tumor volume”.
Turning to `COc1ccc2c(c1)CCCN2c1nc(Cl)nc2ccoc12` [6a, 2-Chloro-4-(6-methoxy-3,4-dihydroquinolin-1(2H)-yl)furo[3,2-d]pyrimidine], in series [2], the half-maximal inhibitory concentration (IC50) was approximately 3 nM. Also, in series [3], the “microvessel density in tumors” value was “less microvessel density” and the “apoptosis in tumors” value is recorded as “increase in the number of cells undergoing apoptosis”. In series [4], the “effect on tubulin polymerization” value is listed as “effectively inhibited tubulin polymerization in a dose-dependent manner”.
With `COc1ccc(N(C)c2nc(Cl)nc3ncccc23)cc1OC` [21a, 2-Chloro-N-(3,4-dimethoxyphenyl)-N-methylpyrido[2,3-d]-pyrimidin-4-amine], in series [2], the 50% inhibitory concentration (IC50) is 45 nM.
Regarding `COc1cc2c(c(OC)c1OC)-c1ccc(OC)c(=O)cc1[C@@H](NC(C)=O)CC2` [colchicine], the “wound closure, RPMI7951, 5 nM” value in series [6] is reported as “a significant decrease in migration was not observed”.
On to `COc1ccc2c(c1)C(O)CCN2c1nc(Cl)nc2ncccc12` (stereo not drawn) [compound 17, 1-(2-Chloropyrido[2,3-d]pyrimidin-4-yl)-6-methoxy-1,2,3,4-tetrahydroquinolin-4-ol], for which, in series [2], the 50% inhibitory concentration (IC50) is approximately 30 nM.
Same read-out and setting: in the case of `COc1ccc2c(c1)OCCN2c1nc(Cl)nc2ncccc12` [compound 19, 4-(2-Chloropyrido[2,3-d]pyrimidin-4-yl)-7-methoxy-3,4-dihydro-2H-benzo[b][1,4]oxazine] it was 298 nM.
`CC(=O)O[C@@]12CO[C@@H]1C[C@H](O)[C@@]1(C)C(=O)[C@H](O)C3=C(C)[C@@H](OC(=O)[C@H](O)[C@@H](NC(=O)OC(C)(C)C)c4ccccc4)C[C@@](O)([C@@H](OC(=O)c4ccccc4)[C@H]21)C3(C)C` [docetaxel, reference compound]: in series [1], the “effect on microtubule networks” value is listed as “dense tubulin accretion, representative of aggressive polymerization”.
For the compound `CC(=O)O[C@H]1C(=O)[C@@]2(C)[C@H]([C@H](OC(=O)c3ccccc3)[C@]3(O)C[C@H](OC(=O)[C@H](O)[C@@H](NC(=O)c4ccccc4)c4ccccc4)C(C)=C1C3(C)C)[C@]1(OC(C)=O)CO[C@@H]1C[C@@H]2O` [paclitaxel, reference compound], in series [3], the “microvessel density in tumors” value is given as “less microvessel density” and the “apoptosis in tumors” value was “increase in the number of cells undergoing apoptosis”. In addition, the “susceptibility of nonresistant tumors to treatment” value in series [7] is “highly susceptible”. Further, in series [4], the “effect on tubulin polymerization” value is “greatest polymerization”. For the same compound, in series [5], the mouse body weight entry was “began to drop considerably after 2 weeks of treatment” and the “effect on tumor growth (in words)” value is listed as “no difference in tumor growth”.

The record behind these values is publication PMC5912893 (Journal of medicinal chemistry, 2018).
